{"source": "patent US20030005484A1", "about": "“Microbiocidal and pesticidal aromatic aldehydes” (ProGuard, Inc., priority 1994, published 2003)", "key": {"[1]": {"system": "black bean aphid, Tetranychus urticae", "experiment": "aphid Petri dish bioassay", "conditions": "for mortality: three hours contact", "protocol": "(§1) Activity of cinnamic aldehyde and/or coniferyl aldehyde against black bean aphid, Tetranychus urticae, and silverleaf white fly, Bemisia argentifolii was determined as follows:\n(§2) Petri dishes (60 mm) were treated with cinnamic aldehyde at 10-25,000 ppm in 2% Tween 80 and 6% NaHCO3 dissolved in water, and the dishes allowed to air dry. Twenty adult aphids (Tetranychus urticae) were put in each dish, (replicate 10 times). The mortality after three hours in contact with a treated plate was compared to that of aphids in petri dishes treated only with diluent. Malathion (250 ppm) was used as a positive control."}, "pacific mites": {"system": "pacific mites", "experiment": "pacific mites on Chardonnay grapevines", "format": "in vivo", "conditions": "for PERCENT INHIBITION / POST-SPRAY MITES: 150 gal./acre, 4 days after spraying; for PRE-SPRAY MITES: baseline", "protocol": "The effect of 0.3% and 0.6% cinnamic aldehyde on pacific mites on grapevine leaves was examined cinnamic aldehyde was diluted to 0.3% and 0.6% in water. Each formulation was sprayed onto a 1 acre block of Chardonnay wine grapes with a tractor-drawn 500 gal. hydraulic sprayer at 150 psi at a rate of 150 gal./acre. As a control, a 10-acre block of Chardonnay wine grapes was treated the same day as the test formulations with the conventional treatment (Omite) per label directions. The number of mites was counted the day prior to spraying and 4 days after spraying. […] In fact, both concentrations reduced the number of mites to a larger extent than the positive control, conventional treatment, Omite. The 0.6% rate nearly eliminated live mites on grapevines. […] The 0.6% was slightly beter than the 0.3 % cinnamic aldehyde with respect to powdery mildew control."}, "Stubby Root nematode": {"system": "Stubby Root nematode", "experiment": "vineyard grape vines, nematode infestation: stubby root", "format": "in vivo", "protocol": "(§3) The subject formulations were tested for ability to reduce grape vine infestation by root knot, ring, stubby root, and roll lesion nematodes. Grape vines (Harmony rootstock) in a vinyard were treated with 1000 ppm or 3000 ppm cinnamaldehyde in 2% Tween 80, the commercial anti-nematode agent Nemacur, or a formulation blank. The extent of nematode infestation was determined at the time of treatment and at 30 and 60 days post-treatment."}, "Roll Lesion nematode": {"system": "Roll Lesion nematode", "experiment": "vineyard grape vines, nematode infestation: roll lesion", "format": "in vivo", "protocol": "as §3"}, "[2]": {"system": "melon aphid (Aphis gossypli Glover)", "experiment": "melon aphid bioassay with Storax formulations", "format": "in vivo, Aphis gossypii", "conditions": "previous bioassays; plants sprayed to run-off at 1,000 ppm", "protocol": "The purpose of this study was to determine the effect of STORAX incorporated into various formulations to evaluate its potential use as a synergist. Initial bioassays were conducted using STORAX at 0.6%, 1.0%, 2.0% with Tween 80 (1%) only. A second bioassay was conducted to evaluate the efficacy of STORAX (at 0.6%) alone and STORAX (at 0.6%) plus cinnamic aldehyde (at 0.1%) or alpha hexyl cinnamaldehyde (at 0.1%). […] STORAX combined with cinnamic aldehyde or α-hexyl cinnamic aldehyde reduced the time course of lethality and increases mortality. Moreover, the cinnamic aldehyde-STORAX formulation approaches the lethal time (LT) required at 2 h for kill of certain virus transmitting pests (e.g., brown citrus aphid)."}, "[3]": {"system": "silverleaf white fly, Bemisia argentifolii", "experiment": "silver leaf white fly Petri dish bioassay", "protocol": "as §1\nas §2, with “and” for “and the dishes”, “silver leaf white fly” for “aphids (Tetranychus urticae)”, “plate,” for “plate”, “silver leaf white fly” for “aphids”, “at 250 ppm” for “(250 ppm)”"}, "phylloxera Biotype A": {"system": "phylloxera Biotype A", "experiment": "planter / field box vines, leaf spray, phylloxera population on roots", "format": "in vivo, Daktulosphaira vitifoliae", "conditions": "Chardonnay (2 treatments), two weeks"}, "grape phylloxera": {"system": "grape phylloxera", "experiment": "reinoculation bioassay of roots excised from leaf-treated vines", "format": "in vivo, Daktulosphaira vitifoliae", "conditions": "for phylloxera counted: 1st instar / phylloxera counted: 2nd instar / phylloxera counted: 3rd instar / phylloxera counted: 4th instar / phylloxera counted: Adults / phylloxera counted: Eggs: roots taken 5 weeks after treatment, 25 day bioassay", "text": "[…] For this bioassay, root sections were inoculated with 20 eggs and the roots maintained as the original colonies were maintained (see description above). After 25 days, the number of individual phylloxera of each age class were counted."}, "[4]": {"conditions": "2500 ppm and above in 2% Tween 80 and 6% NaHCO3, three hours contact with treated dish"}, "[5]": {"conditions": "1000 ppm in 2% Tween 80, 30 days post-treatment"}, "[6]": {"conditions": "1000 ppm in 2% Tween 80, 60 days post-treatment"}, "[7]": {"conditions": "1000 ppm in 2% Tween 80, day 0 (time of treatment)"}, "[8]": {"conditions": "3000 ppm in 2% Tween 80, 30 days post-treatment"}, "[9]": {"conditions": "3000 ppm in 2% Tween 80, day 0 (time of treatment)"}}}
{"compound": "O=C/C=C/c1ccccc1", "note": "[cinnamic aldehyde]", "values": [{"measurement": "mortality", "setting": "[1]; 10 ppm in 2% Tween 80 and 6% NaHCO3", "result": 25, "unit": "%"}, {"measurement": "mortality", "setting": "[1]; 100 ppm in 2% Tween 80 and 6% NaHCO3", "result": 50, "unit": "%"}, {"measurement": "aphids killed", "setting": "[1]; [4]", "result": 100, "unit": "%"}, {"measurement": "PERCENT INHIBITION", "setting": "pacific mites; 0.3% CNMA in water", "result": 89, "unit": "%"}, {"measurement": "POST-SPRAY MITES", "setting": "pacific mites; 0.3% CNMA in water", "result": 4.5}, {"measurement": "PERCENT INHIBITION", "setting": "pacific mites; 0.6% CNMA in water", "result": 98, "unit": "%"}, {"measurement": "POST-SPRAY MITES", "setting": "pacific mites; 0.6% CNMA in water", "result": 0.5}, {"measurement": "PRE-SPRAY MITES", "setting": "pacific mites; day prior to spraying 0.3% CNMA", "result": 41.4}, {"measurement": "PRE-SPRAY MITES", "setting": "pacific mites; day prior to spraying 0.6% CNMA", "result": 32.5}, {"measurement": "Stubby Root, nematodes per 250 cc soil", "setting": "Stubby Root nematode; [5]", "result": 45, "unit": "per 250 cc soil"}, {"measurement": "Stubby Root, nematodes per 250 cc soil", "setting": "Stubby Root nematode; [6]", "result": 36.2, "unit": "per 250 cc soil"}, {"measurement": "Stubby Root, nematodes per 250 cc soil", "setting": "Stubby Root nematode; [7]", "result": 13.8, "unit": "per 250 cc soil"}, {"measurement": "Stubby Root, nematodes per 250 cc soil", "setting": "Stubby Root nematode; [8]", "result": 8.8, "unit": "per 250 cc soil"}, {"measurement": "Stubby Root, nematodes per 250 cc soil", "setting": "Stubby Root nematode; 3000 ppm in 2% Tween 80, 60 days post-treatment", "result": 43.5, "unit": "per 250 cc soil"}, {"measurement": "Stubby Root, nematodes per 250 cc soil", "setting": "Stubby Root nematode; [9]", "result": 0.8, "unit": "per 250 cc soil"}, {"measurement": "Roll Lesion, nematodes per gram root", "setting": "Roll Lesion nematode; [5]", "result": 2.7, "unit": "per gram root"}, {"measurement": "Roll Lesion, nematodes per gram root", "setting": "Roll Lesion nematode; [6]", "result": 0, "unit": "per gram root"}, {"measurement": "Roll Lesion, nematodes per gram root", "setting": "Roll Lesion nematode; [7]", "result": 2.9, "unit": "per gram root"}, {"measurement": "Roll Lesion, nematodes per gram root", "setting": "Roll Lesion nematode; [8]", "result": 0.56, "unit": "per gram root"}, {"measurement": "Roll Lesion, nematodes per gram root", "setting": "Roll Lesion nematode; [9]", "result": 1.0, "unit": "per gram root"}, {"measurement": "time at which an LD50 was observed", "setting": "[2]", "result": 2, "unit": "h"}, {"measurement": "time at which an LD75 was observed", "setting": "[2]", "result": 24, "unit": "h"}, {"measurement": "silver leaf white fly killed", "setting": "[3]; [4]", "result": 100, "unit": "%"}, {"measurement": "mortality at 10 ppm", "setting": "[3]; Bemisia argentifolii, 3 h", "result": 25, "unit": "%"}, {"measurement": "mortality at 100 ppm", "setting": "[3]; Bemisia argentifolii, 3 h", "result": 50, "unit": "%"}, {"measurement": "Silver Leaf White Fly Mortality (Percent)", "setting": "[3]; Cinnamic Aldehyde (20 g) with NaHCO3", "result": 87.3, "unit": "%"}, {"measurement": "Silver Leaf White Fly Mortality (Percent)", "setting": "[3]; Cinnamic Aldehyde (20 g) with T80(2%) + NaHCO3 (6%)", "result": 100, "unit": "%"}, {"measurement": "Silver Leaf White Fly Mortality (Percent)", "setting": "[3]; Cinnamic Aldehyde (20 g) with T80 (10 g)", "result": 72.1, "unit": "%"}, {"measurement": "Silver Leaf White Fly Mortality (Percent)", "setting": "[3]; Cinnamic Aldehyde (20 g), no additive", "result": 68.6, "unit": "%"}, {"measurement": "Number of phylloxera per root piece", "setting": "phylloxera Biotype A; 1 K CNMA", "result": 637}, {"measurement": "Number of phylloxera per root piece", "setting": "phylloxera Biotype A; 10 K CNMA", "result": 102}, {"measurement": "phylloxera counted: 1st instar", "setting": "grape phylloxera; 300 ppm leaf treatment", "result": 0}, {"measurement": "phylloxera counted: 2nd instar", "setting": "grape phylloxera; 300 ppm leaf treatment", "result": 6}, {"measurement": "phylloxera counted: 3rd instar", "setting": "grape phylloxera; 300 ppm leaf treatment", "result": 5}, {"measurement": "phylloxera counted: 4th instar", "setting": "grape phylloxera; 300 ppm leaf treatment", "result": 0}, {"measurement": "phylloxera counted: Adults", "setting": "grape phylloxera; 300 ppm leaf treatment", "result": 4}, {"measurement": "phylloxera counted: Eggs", "setting": "grape phylloxera; 300 ppm leaf treatment", "result": 16}, {"measurement": "phylloxera counted: 1st instar", "setting": "grape phylloxera; 1000 ppm leaf treatment", "result": 0}, {"measurement": "phylloxera counted: 2nd instar", "setting": "grape phylloxera; 1000 ppm leaf treatment", "result": 1}, {"measurement": "phylloxera counted: 3rd instar", "setting": "grape phylloxera; 1000 ppm leaf treatment", "result": 4}, {"measurement": "phylloxera counted: 4th instar", "setting": "grape phylloxera; 1000 ppm leaf treatment", "result": 2}, {"measurement": "phylloxera counted: Adults", "setting": "grape phylloxera; 1000 ppm leaf treatment", "result": 1}, {"measurement": "phylloxera counted: Eggs", "setting": "grape phylloxera; 1000 ppm leaf treatment", "result": 2}, {"measurement": "phylloxera counted: 1st instar", "setting": "grape phylloxera; 3000 ppm leaf treatment", "result": 0}, {"measurement": "phylloxera counted: 2nd instar", "setting": "grape phylloxera; 3000 ppm leaf treatment", "result": 2}, {"measurement": "phylloxera counted: 3rd instar", "setting": "grape phylloxera; 3000 ppm leaf treatment", "result": 1}, {"measurement": "phylloxera counted: 4th instar", "setting": "grape phylloxera; 3000 ppm leaf treatment", "result": 1}, {"measurement": "phylloxera counted: Adults", "setting": "grape phylloxera; 3000 ppm leaf treatment", "result": 0}, {"measurement": "phylloxera counted: Eggs", "setting": "grape phylloxera; 3000 ppm leaf treatment", "result": 0}, {"measurement": "phylloxera counted: 1st instar", "setting": "grape phylloxera; 10,000 ppm leaf treatment", "result": 0}, {"measurement": "phylloxera counted: 2nd instar", "setting": "grape phylloxera; 10,000 ppm leaf treatment", "result": 2}, {"measurement": "phylloxera counted: 3rd instar", "setting": "grape phylloxera; 10,000 ppm leaf treatment", "result": 0}, {"measurement": "phylloxera counted: 4th instar", "setting": "grape phylloxera; 10,000 ppm leaf treatment", "result": 0}, {"measurement": "phylloxera counted: Adults", "setting": "grape phylloxera; 10,000 ppm leaf treatment", "result": 0}, {"measurement": "phylloxera counted: Eggs", "setting": "grape phylloxera; 10,000 ppm leaf treatment", "result": 0}, {"measurement": "establishment of new phylloxera populations on roots from treated plants", "setting": "grape phylloxera; roots taken 1, 2 and 5 weeks after treatment, infested with untreated eggs", "result": "not from the CNMA-treated plants"}]}
